How the values were obtained:
Format in all cases: cell-based
BRAF V600E = target: T1, BRAF V600E (Homo sapiens, UniProt P15056, V600E); test: BRAF HiBiT degradation assay, C-terminal HiBiT-tagged BRAF V600E A375 cells (clone 1F10), Nano-Glo HiBiT Lytic assay; conditions: A375 (BRAF V600E); for DC50: DC50 at 50%: fitted conc. at Y=50; for Dmax: A-375, percentage protein degraded at maximal compound effect relative to DMSO
T1 construct: endogenous C-terminal HiBiT fusion tag on BRAF V600E allele; endogenous in cells; host or cells: A375 clone 1F10 (CRISPR-Cas9 knock-in of the HiBiT tag; parental A375 from ATCC)
T1 sequence (P15056 whole entry V600E, the tested form may be a part): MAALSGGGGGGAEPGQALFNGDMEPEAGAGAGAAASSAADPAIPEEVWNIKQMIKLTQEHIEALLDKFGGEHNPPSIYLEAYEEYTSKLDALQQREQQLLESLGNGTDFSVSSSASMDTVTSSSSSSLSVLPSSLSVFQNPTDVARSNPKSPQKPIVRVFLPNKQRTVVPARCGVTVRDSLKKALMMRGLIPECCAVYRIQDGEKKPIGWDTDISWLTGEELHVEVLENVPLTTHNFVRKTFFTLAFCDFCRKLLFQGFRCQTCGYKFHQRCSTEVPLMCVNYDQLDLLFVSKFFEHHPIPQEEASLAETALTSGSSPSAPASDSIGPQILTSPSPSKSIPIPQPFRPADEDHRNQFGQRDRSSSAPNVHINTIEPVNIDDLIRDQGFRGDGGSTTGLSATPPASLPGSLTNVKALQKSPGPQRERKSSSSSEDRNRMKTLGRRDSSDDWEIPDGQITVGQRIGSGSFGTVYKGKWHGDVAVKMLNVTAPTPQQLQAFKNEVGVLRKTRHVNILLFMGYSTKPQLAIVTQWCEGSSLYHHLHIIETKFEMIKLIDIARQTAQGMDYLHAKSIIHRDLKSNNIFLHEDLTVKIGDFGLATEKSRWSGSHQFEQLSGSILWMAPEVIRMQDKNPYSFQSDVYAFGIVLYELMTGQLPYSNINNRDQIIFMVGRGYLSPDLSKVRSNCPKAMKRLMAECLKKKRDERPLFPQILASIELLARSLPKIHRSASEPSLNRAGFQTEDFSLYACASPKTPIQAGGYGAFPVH
How it was run: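 Using CRISPR-engineered A375 cells that carry a C-terminal HiBiT tag on endogenous BRAF V600E, remaining protein was quantified by lytic luminescence relative to DMSO-treated cells, with wildtype A375 as the background control. DC50 denotes the concentration giving 50% degradation.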

BRAF G466V = target: T2, BRAF G466V (Homo sapiens, UniProt P15056, G466V); test: BRAF HiBiT degradation assay, C-terminal HiBiT-tagged BRAF G466V overexpressed in HCT-116 BRAF−/− cells (clone 8), Nano-Glo HiBiT Lytic assay; conditions: BRAF G466V; for DC50: DC50 at 50%: fitted conc. at Y=50; for Dmax: HCT-116, percentage protein degraded at maximal compound effect relative to DMSO
T2 construct: Horizon Discovery (HCT-116 BRAF−/− cells); host or cells: HCT-116 BRAF−/− cells, clone 8, lentiviral transduction
T2 sequence (P15056 whole entry G466V): as the sequence (P15056 whole entry V600E, the tested form may be a part) above, with G466V, E600V counted along it
How it was run: (§1)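 Degradation assay in HCT-116 BRAF−/− cells carrying lentiviral HiBiT-tagged mutant BRAF. The readout is % protein remaining across 1 μM to 0.01 nM compound, and DC50 marks 50% remaining.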

BRAF G469A = target: T3, BRAF G469A (Homo sapiens, UniProt P15056, G469A); test: BRAF HiBiT degradation assay, C-terminal HiBiT-tagged BRAF G469A overexpressed in HCT-116 BRAF−/− cells (clone 34), Nano-Glo HiBiT Lytic assay; conditions: Class 2, BRAF G469A; for DC50: DC50 at 50%: fitted conc. at Y=50; for Dmax: HCT-116, percentage protein degraded at maximal compound effect relative to DMSO
T3 construct: Horizon Discovery (HCT-116 BRAF−/− cells); host or cells: HCT-116 BRAF−/− cells, clone 34, lentiviral transduction
T3 sequence (P15056 whole entry G469A): as the sequence (P15056 whole entry V600E, the tested form may be a part) above, with G469A, E600V counted along it
How it was run: as §1

BRAF D594G = target: T4, BRAF D594G (Homo sapiens, UniProt P15056, D594G); test: BRAF HiBiT degradation assay, C-terminal HiBiT-tagged BRAF D594G overexpressed in HCT-116 BRAF−/− cells (clone 63), Nano-Glo HiBiT Lytic assay; conditions: BRAF D594G; for DC50: DC50 at 50%: fitted conc. at Y=50; for Dmax: HCT-116, percentage protein degraded at maximal compound effect relative to DMSO
T4 construct: Horizon Discovery (HCT-116 BRAF−/− cells); host or cells: HCT-116 BRAF−/− cells, clone 63, lentiviral transduction
T4 sequence (P15056 whole entry D594G): as the sequence (P15056 whole entry V600E, the tested form may be a part) above, with D594G, E600V counted along it
How it was run: as §1

SMILES | DC50 (BRAF V600E) [nM] | Dmax (BRAF V600E) [%] | DC50 (BRAF G466V) [nM] | Dmax (BRAF G466V) [%] | DC50 (BRAF G469A) [nM] | Dmax (BRAF G469A) [%] | DC50 (BRAF D594G) [nM] | Dmax (BRAF D594G) [%]
CCCS(=O)(=O)Nc1cccc(-c2nc(C(C)(C)C)sc2-c2ccnc(NC3CC4(C3)CN(C(=O)CN3CCC5(CC3)CN(c3ccc6c(c3)C(=O)N(C3CCC(=O)NC3=O)C6=O)C5)C4)n2)c1F (racemic) [Compound 152, Rac-N-(3-{2-tert-butyl-5-[2-({2-[2-(2-{2-[(3R)-2,6-dioxopiperidin-3-yl]-1,3-dioxo-2,3-dihydro-1H-isoindol-5-yl}-2,7-diazaspiro[3.5]nonan-7-yl)acetyl]-2-azaspiro[3.3]heptan-6-yl}amino)pyrimidin-4-yl]-1,3-thiazol-4-yl}-2-fluorophenyl)propane-1-sulfonamide] | 10 to 50 | 30 to 70 | > 500 | < 30 | > 500 | < 30 | > 500 | 30 to 70
CCCS(=O)(=O)Nc1cccc(-c2nc(C(C)(C)C)sc2-c2ccnc(Nc3ccc(C4CCN(C(=O)C5CN(c6ccc(C7CCC(=O)NC7=O)cn6)C5)CC4)cc3)n2)c1F (racemic) [Compound 159, Rac-N-(3-{2-tert-butyl-5-[2-({4-[1-(1-{5-[(3R)-2,6-dioxopiperidin-3-yl]pyridin-2-yl}azetidine-3-carbonyl)piperidin-4-yl]phenyl}amino)pyrimidin-4-yl]-1,3-thiazol-4-yl}-2-fluorophenyl)propane-1-sulfonamide] | < 10 | > 70 | > 500 | < 30 | > 500 | < 30 | > 500 | 30 to 70
CCCS(=O)(=O)Nc1cccc(-c2nc(C(C)(C)C)sc2-c2ccnc(Nc3ccc(C4CCN(C(=O)C5CCN(c6cc(C7CCC(=O)NC7=O)ccn6)CC5)CC4)cc3)n2)c1F (racemic) [Compound 163, Rac-N-(3-{2-tert-butyl-5-[2-({4-[1-(1-{4-[(3R)-2,6-dioxopiperidin-3-yl]pyridin-2-yl}piperidine-4-carbonyl)piperidin-4-yl]phenyl}amino)pyrimidin-4-yl]-1,3-thiazol-4-yl}-2-fluorophenyl)propane-1-sulfonamide] | 50 to 500 | 30 to 70 | > 500 | < 30 | > 500 | < 30 | > 500 | < 30
CCCS(=O)(=O)Nc1cccc(-c2nc(C(C)(C)C)sc2-c2ccnc(Nc3ccc(C4CCN(CC5CCN(c6ccc(C7CCC(=O)NC7=O)cc6)CC5)CC4)cc3)n2)c1F (racemic) [Compound 167, Rac-N-[3-(2-tert-butyl-5-{2-[(4-{1-[(1-{4-[(3R)-2,6-dioxopiperidin-3-yl]phenyl}piperidin-4-yl)methyl]piperidin-4-yl}phenyl)amino]pyrimidin-4-yl}-1,3-thiazol-4-yl)-2-fluorophenyl]propane-1-sulfonamide] | 10 to 50 | 30 to 70 | > 500 | 30 to 70 | > 500 | 30 to 70 | > 500 | 30 to 70
CCCS(=O)(=O)Nc1cccc(-c2nc(C(C)(C)C)sc2-c2ccnc(NC3CC4(C3)CN(CC3CCN(c5ccc(C(=O)NC6CCC(=O)NC6=O)cc5)CC3)C4)n2)c1F (racemic) [Compound 170, Rac-4-[4-({6-[(4-{2-tert-butyl-4-[2-fluoro-3-(propane-1-sulfonamido)phenyl]-1,3-thiazol-5-yl}pyrimidin-2-yl)amino]-2-azaspiro[3.3]heptan-2-yl}methyl)piperidin-1-yl]-N-[(3R)-2,6-dioxopiperidin-3-yl]benzamide] | 50 to 500 | 30 to 70 | > 500 | < 30 | > 500 | < 30 | > 500 | < 30

The next lines start with the values.

DC50 (BRAF V600E) [nM] | Dmax (BRAF V600E) [%] | DC50 (BRAF G466V) [nM] | Dmax (BRAF G466V) [%] | DC50 (BRAF G469A) [nM] | Dmax (BRAF G469A) [%] | DC50 (BRAF D594G) [nM] | Dmax (BRAF D594G) [%] | SMILES
50 to 500 | 30 to 70 | > 500 | < 30 | > 500 | < 30 | > 500 | < 30 | CCCS(=O)(=O)Nc1cccc(-c2nc(C(C)(C)C)sc2-c2ccnc(Nc3ccc(C4CCN(CC5CCN(c6ccc(C(=O)NC7CCC(=O)NC7=O)cc6)CC5)CC4)cc3)n2)c1F (racemic) [Compound 171, Rac-4-{4-[(4-{4-[(4-{2-tert-butyl-4-[2-fluoro-3-(propane-1-sulfonamido)phenyl]-1,3-thiazol-5-yl}pyrimidin-2-yl)amino]phenyl}piperidin-1-yl)methyl]piperidin-1-yl}-N-[(3R)-2,6-dioxopiperidin-3-yl]benzamide]
10 to 50 | > 70 | > 500 | < 30 | > 500 | < 30 | > 500 | < 30 | CCCS(=O)(=O)Nc1cccc(-c2nc(C(C)(C)C)sc2-c2ccnc(Nc3ccc(C4CCN(C(=O)CN5CCN(c6cc(C7CCC(=O)NC7=O)ccn6)CC5)CC4)cc3)n2)c1F (racemic) [Compound 174, Rac-N-[3-(2-tert-butyl-5-{2-[(4-{1-[2-(4-{4-[(3R)-2,6-dioxopiperidin-3-yl]pyridin-2-yl}piperazin-1-yl)acetyl]piperidin-4-yl}phenyl)amino]pyrimidin-4-yl}-1,3-thiazol-4-yl)-2-fluorophenyl]propane-1-sulfonamide]
10 to 50 | > 70 | > 500 | < 30 | > 500 | < 30 | > 500 | < 30 | CCCS(=O)(=O)Nc1cccc(-c2nc(C(C)(C)C)sc2-c2ccnc(Nc3ccc(C4CCN(CC5CCN(c6cncc(C7CCC(=O)NC7=O)c6)CC5)CC4)cc3)n2)c1F (racemic) [Compound 177, Rac-N-[3-(2-tert-butyl-5-{2-[(4-{1-[(1-{5-[(3R)-2,6-dioxopiperidin-3-yl]pyridin-3-yl}piperidin-4-yl)methyl]piperidin-4-yl}phenyl)amino]pyrimidin-4-yl}-1,3-thiazol-4-yl)-2-fluorophenyl]propane-1-sulfonamide]
< 10 | > 70 | > 500 | 30 to 70 | > 500 | < 30 | < 10 | 30 to 70 | CCCS(=O)(=O)Nc1cccc(-c2nc(C3CCN(C(=O)C4(C)CCN(C(=O)C5CCN(c6ccc(C7CCC(=O)NC7=O)cc6)CC5)CC4)CC3)sc2-c2ccnc(NC(C)C)n2)c1F (racemic) [Compound 179, Rac-N-[3-(2-{1-[1-(1-{4-[(3R)-2,6-dioxopiperidin-3-yl]phenyl}piperidine-4-carbonyl)-4-methylpiperidine-4-carbonyl]piperidin-4-yl}-5-{2-[(propan-2-yl)amino]pyrimidin-4-yl}-1,3-thiazol-4-yl)-2-fluorophenyl]propane-1-sulfonamide]
< 10 | > 70 | < 10 | > 70 | > 500 | 30 to 70 | < 10 | > 70 | CCCS(=O)(=O)Nc1cccc(-c2nc(C3CCN(C(=O)C4(C)CCN(C(=O)C5CCN(c6ccc(C7CCC(=O)NC7=O)cn6)CC5)CC4)CC3)sc2-c2ccncn2)c1F (racemic) [Compound 181, Rac-N-[3-(2-{1-[1-(1-{5-[(3R)-2,6-dioxopiperidin-3-yl]pyridin-2-yl}piperidine-4-carbonyl)-4-methylpiperidine-4-carbonyl]piperidin-4-yl}-5-(pyrimidin-4-yl)-1,3-thiazol-4-yl)-2-fluorophenyl]propane-1-sulfonamide]
< 10 | > 70 | < 10 | 30 to 70 | > 500 | 30 to 70 | < 10 | 30 to 70 | CCN(C)S(=O)(=O)Nc1cccc(-c2nc(C3CCN(C(=O)C4CCN(C(=O)C5CCN(c6ccc(C7CCC(=O)NC7=O)cn6)CC5)CC4)CC3)sc2-c2ccnc(NC(C)C)n2)c1F (racemic) [Compound 183, Rac-(3S)-3-{6-[4-(4-{4-[4-(3-{[ethyl(methyl)sulfamoyl]amino}-2-fluorophenyl)-5-{2-[(propan-2-yl)amino]pyrimidin-4-yl}-1,3-thiazol-2-yl]piperidine-1-carbonyl}piperidine-1-carbonyl)piperidin-1-yl]pyridin-3-yl}piperidine-2,6-dione]

Source: US20260317324A1, “BIFUNCTIONAL COMPOUNDS FOR DEGRADING BRAF VIA UBIQUITIN PROTEOSOME PATHWAY” (Nurix Therapeutics, Inc., priority 2023, published 2026)
